How the values were obtained:
[1] = tested on: NotchIC cells; assay: Monolayer differentiation of NotchIC ES cells, sox1-GFP by FACS; format: cell-based, mouse; settings: 4 μM inhibitor, sox1-GFP positive cells by FACS
Excerpt: Intact cultures were stained for Oct4 on day 5 to visualise undifferentiated ES cells.
(§1) This is as described in detail in Ying et al., 2003b. Briefly, ES cells were washed to remove all traces of serum and then plated on gelatin-coated tissue culture plastic at a density of 1>10^4 cells/cm^2 in N2B27 serum-free medium. N2B27 consists of a 1:1 ratio of DM/F12 and Neurobasal media supplemental with 0.5% N2 (made in house as described in (Ying et al., 2003b)), 0.5% B27 (Gibco) and 2-mercaptoethanol. Media was changed every second day.
(§2) In some experiments, the culture medium was supplemented with 100 units/ml LIF and with 10% FCS. The MAPK inhibitor PD184352 (gift of P. Cohen, Univ Dundee) was used at a concentration of 4 μM. The gamma secretase inhibitor (Calbiochem cat. 565771) was used at a concentration of 4 μM.

[2] = tested on: ES cells; assay: Toxic effects of inhibitors in ES cell monolayer differentiation cultures; format: cell-based, mouse; settings: 4 μM
Excerpt: as §1, §2

With O=C(NOCC1CC1)c1ccc(F)c(F)c1Nc1ccc(I)cc1Cl [PD184352] the “induction of sox1 in NotchIC cells” value [1] was “able to block induction of sox1” and the “toxic effects over the time course of the experiments” value [2] was “Neither of these inhibitors had any obvious toxic effects”.

For Cc1c[nH]c(/C=C2\C(=O)Nc3ccccc32)c1CCC(=O)O [SU5402], the “induction of sox1 in NotchIC cells” value [1] was “able to block induction of sox1”.
